How the values were obtained:
[1] = test system: rabbit erythrocytes; type: cell-based; conditions: total peptide concentration 2 µM; 1 h at 37 °C; hemoglobin release, absorbance at 415 nm; mixture 1:1
Protocol: Solution phase hemolysis assays were conducted as described previously.[35]
Fig. S2. […] A) Hemoglobin release […]
erythrocytes were treated with 0.03% v/v triton X-100. Negative control contained only buffer. A total peptide concentration of 2 µM was used in each case. B) Extent of hemolysis after treating freshly washed rabbit erythrocytes with 1:1 of CylLS”:CylLL” at 37 ̊C for 1 h. Data was fit to a […]
(1 picture or pasted object on this page, not shown here)

[2] = test system: Micrococcus luteus ATCC 4698; assay: Agar diffusion assay using bacteria; type: cell-based
Protocol: Fig. 4. […] Cytolysin was used as a positive control.
Overnight cultures of bacteria were prepared according to Table S1. The OD600 of each culture was determined and adjusted to a value of 1 using the appropriate growth media. Molten growth media containing 0.7% agar was cooled to 50 °C and inoculated with 50 μL of adjusted overnight culture for every 5 mL of molten growth media. The inoculated molten growth media was immediately poured onto a pre-warmed agar (2%) plate prepared using the same media. The plate was allowed to set for 30 min at room temperature before adding 3 μL of peptide stock diluted in PBS to 100 μM. The deposited peptide solutions were allowed to stand on the agar plate for 30 min before incubation for 16–36 h at the optimum growth temperature until the desired cell density was achieved.

[3] = In vitro pore formation assay, pyranine-encapsulated liposomes; conditions: total peptide concentration 5 μM; DOPC liposomes containing or lacking 0.1 mol% lipid II; mixture 1:1
Protocol: To investigate the lipid II-dependence of the pore formation activity of bibacillin 1, pyranine-encapsulated liposomes were prepared containing or lacking lipid II and pore formation was monitored via pH-dependent pyranine fluorescence.[70]
This assay was conducted as described elsewhere.[70]

[4] = SDS-PAGE analysis of oligomerization; type: physicochemical; conditions: in the presence of SDS
Source text: Using agar plates seeded with E. faecalis pXL110 and the colorimetric LacZ substrate X-gal, LacZ expression was visualized. Consistent with previous reports,[43] […] Comparing the structures of CylLS” and Bib1β (Fig. 1A and 2B), we speculated that the presence of Ser16 in Bib1β rather than the hydrophobic residues present in CylLS” in this region might interfere with CylR1 binding possibly due to hydrophobic mismatching. […] To determine whether bibacillin 1 could quorum sense through an aggregation mechanism, the aggregation propensity of bibacillin 1 was analyzed using SDS-PAGE and dynamic light scattering (DLS). […] Since SDS can influence aggregation, the aggregation of bibacillin 1 was further investigated under SDS-free conditions using DLS (Fig. 6B). Bib1α exists in solution as aggregates that are 159 nm in diameter on average (PDI = 0.224) and Bib1β forms aggregates that are 291 nm in diameter on average (PDI = 0.384). […] Confirmation of this hypothesis will require in vitro studies with Bib1R1/R2.

Row | Structure (SMILES) | Hemolysis in solution phase assay [1] | Growth inhibition in agar diffusion assay [2] | Pore formation activity in liposomes, pyranine fluorescence [3] | Oligomeric state by SDS-PAGE [4]
1 | C=C(NC(=O)[C@H](C)NC(=O)[C@@H]1CS[C@H](C)[C@H](N)C(=O)NC(=C)C(=O)N2CCC[C@H]2C(=O)N[C@@H](C)C(=O)N1)C(=O)N[C@@H](C)C(=O)N[C@@H](CCSC)C(=O)N[C@@H](CC(C)C)C(=O)N[C@@H](Cc1ccc(O)cc1)C(=O)N[C@@H](CC(C)C)C(=O)N[C@@H](CCC(N)=O)C(=O)NCC(=O)N[C@H](C(=O)NC(=CC)C(=O)N[C@H](C(=O)NC(=C)C(=O)N[C@@H](CC(C)C)C(=O)NCC(=O)N[C@@H](CC(C)C)C(=O)N[C@@H]1CSC[C@@H](C(=O)O)NC(=O)[C@H](Cc2c[nH]cn2)NC(=O)[C@H](CCSC)NC(=O)[C@H](CCCNC(=N)N)NC1=O)C(C)C)C(C)C [Bib1α] | did not induce hemolysis | weak individual activity | pore formation activity that was somewhat enhanced by the addition of lipid II | oligomeric in the presence of SDS
2 | CC=C1NC(=O)[C@@H](N)[C@@H](C)SC[C@@H](C(=O)N[C@@H](C)C(=O)N[C@H](C(=O)NCC(=O)NCC(=O)NCC(=O)N[C@@H](CC(C)C)C(=O)N[C@@H](C)C(=O)N[C@@H](CC(C)C)C(=O)NCC(=O)N[C@@H](Cc2ccccc2)C(=O)N[C@@H](CO)C(=O)N[C@H](C(=O)N[C@@H]2CSC[C@@H](C(=O)O)NC(=O)[C@H](Cc3ccc(O)cc3)NC(=O)[C@H]([C@@H](C)CC)NC(=O)[C@H](CCCCN)NC2=O)[C@@H](C)CC)[C@@H](C)CC)NC(=O)[C@H](C(C)C)NC(=O)[C@@H]2CCCN2C1=O [Bib1β] | did not induce hemolysis | weak individual activity | – | oligomeric in the presence of SDS

From paper doi:10.1101/2024.08.13.607848, “Bibacillin 1: A two-component lantibiotic from Bacillus thuringiensis” (bioRxiv, 2024)
